According to US11337970B2, “Inhibitors of indoleamine 2,3-dioxygenase and methods of their use” (BRISTOL-MYERS SQUIBB COMPANY, priority 2016, dated 2022):

Experiments:
[1] = target: T1, indoleamine 2,3-dioxygenase (IDO) (Homo sapiens, UniProt P14902); test: HeLa cell-based indoleamine 2,3-dioxygenase (IDO) assay (kynurenine production); conditions: HeLa cells, IFNγ 25 ng/mL, 48 hour incubation, absorbance at 480 nm
T1 construct: host or cells: HeLa cells stimulated with IFNγ (25 ng/mL)
Protocol: Assessment of inhibitor activity in HeLa cell-based indoleamine 2,3-dioxygenase (IDO) assay:
HeLa (ATCC® CCL-2) cells were obtained from the ATCC® and cultured in Dulbecco's Modified Eagle Medium supplemented with 4.5 g/L glucose, […] (#10-013-CV, Corning), 2 mM L-alanyl-L-glutamine dipeptide (#35050-061, Gibco), 100U/mL penicillin, 100 μg/mL streptomycin (#SV30010, HyClone) and 10% fetal bovine serum (#SH30071.03 HyClone). Cells were maintained in a humidified incubator at 37° C. in 5% CO2.
IDO activity was assessed as a function of kynurenine production as follows: HeLa cells were seeded in a 96-well culture plate at a density of 5,000 cells/well and allowed to equilibrate overnight. After 24 hours, the media was aspirated and replaced with media containing IFNγ (#285-IF/CF, R&D Systems) at a final concentration of 25 ng/mL. A serial dilution of each test compound was added to the cells in a total volume of 200 μL of culture medium. After a further 48 hour incubation, 170 μL of supernatant was transferred from each well to a fresh 96-well plate. 12.1 μL of 6.1N trichloroacetic acid (#T0699, Sigma-Aldrich) was added to each well and mixed, followed by incubation at 65° C. for 20 minutes to hydrolyze N-formylkynurenine, the product of indoleamine 2,3-dioxygenase, to kynurenine. The reaction mixture was then centrifuged for 10 mins at 500×g to sediment the precipitate. 100 μL of the supernatant was transferred from each well to afresh 96-well plate. 100 μl of 2% (w/v) p-dimethylaminobenzaldehyde (#15647-7, Sigma-Aldrich) in acetic acid (#A6283, Sigma-Aldrich) was added to each well mixed and incubated at room temperature for 20 mins. Kynurenine concentrations were determined by measuring absorbance at 480 nm and calibrating against an L-kynurenine (#K8625, Sigma-Aldrich) standard curve using a SPECTRAMAX® M2e microplate reader (Molecular Devices). The percentage activity at each inhibitor concentration was determined and IC50 values assessed using nonlinear regression.

[2] = target: T2, human IDO1 (Homo sapiens, UniProt P14902); test: IDO inhibition assay in HEK293 cells stably expressing human IDO1 (kynurenine, Ehrlich reagent); assay type: cell-based; conditions: 20 hours incubation, absorbance at 490 nm, read-out: IDO1 HEK Human IC50
T2 construct: expressed in transfected cells
T2 sequence (P14902 whole entry): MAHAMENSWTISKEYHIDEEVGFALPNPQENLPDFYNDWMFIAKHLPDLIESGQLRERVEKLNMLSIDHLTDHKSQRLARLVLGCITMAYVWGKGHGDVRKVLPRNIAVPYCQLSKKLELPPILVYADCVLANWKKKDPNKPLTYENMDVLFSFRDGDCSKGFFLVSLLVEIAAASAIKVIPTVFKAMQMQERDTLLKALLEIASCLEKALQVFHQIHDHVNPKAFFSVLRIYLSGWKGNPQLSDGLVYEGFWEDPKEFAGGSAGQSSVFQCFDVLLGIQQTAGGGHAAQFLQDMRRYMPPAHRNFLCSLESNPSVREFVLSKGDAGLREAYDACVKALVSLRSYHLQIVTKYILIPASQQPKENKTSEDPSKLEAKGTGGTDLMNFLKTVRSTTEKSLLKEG
Protocol: HEK293 cells were transfected with a pCDNA-based mammalian expression vector harboring human IDO1 cDNA (NM 002164.2) by electroporation. They were cultured in medium (DMEM with 10% FBS) containing 1 mg/ml G418 for two weeks. Clones of HEK293 cells that stably expressed human IDO1 protein were selected and expanded for IDO inhibition assay.
The human IDO1/HEK293 cells were seeded at 10,000 cells per 50 μL per well with RPMI/phenol red free media contains 10% FBS in a 384-well black wall clear bottom tissue culture plate (Matrix Technologies LLC) 100 nL of certain concentration of compound was then added to each well using ECHO liquid handling systems. The cells were incubated for 20 hours in 37° C. incubator with 5% CO2.
The compound treatments were stopped by adding trichloroacetic acid (Sigma-Aldrich) to a final concentration at 0.2%. The cell plate was further incubated at 50° C. for 30 minute. The equal volume supernatant (20 μL) and 0.2% (w/v) Ehrlich reagent (4-dimethylaminobenzaldehyde, Sigma-Aldrich) in glacial acetic acid were mixed in a new clear bottom 384-well plate. This plate was then incubated at room temperature for 30 minute. The absorbance at 490 nm was measured on Envision plate reader.
Compound IC50 values were calculated using the counts of 500 nM of a reference standard treatment as one hundred percent inhibition, and counts of no compound but DMSO treatment as zero percent inhibition.

T1 sequence (P14902 whole entry): as above

| Compound | IC50 [1] [nM] | IC50 [2] [nM] |
| --- | --- | --- |
| CC[C@H](c1nc2ccc(Cl)cc2[nH]1)[C@H]1CC[C@@H](c2ccnc3ccc(F)cc32)CC1 (single isomer, unassigned) [Example 15-4, 4-(4-(1-(6-chloro-1H-benzo[d]imidazol-2-yl)propyl)cyclohexyl)-6-fluoroquinoline] | 9.5 | 6.6 |
| C[C@@H](Nc1nc2ccc(Cl)cc2o1)[C@H]1CC[C@@H](c2ccnc3ccc(F)cc32)CC1 [Example 11, 6-chloro-N-((R)-1-((cis)-4-(6-fluoroquinolin-4-yl)cyclohexyl)ethyl)benzo[d]oxazol-2-amine] | 40.9 | 40.9 |
| CCC(c1nc2ccc(Cl)cc2[nH]1)[C@H]1CC[C@H](Oc2ccnc3ccccc23)CC1 (single isomer, unassigned) [Example 13-2, 4-(((trans)-4-(1-(6-chloro-1H-benzo[d]imidazol-2-yl)propyl)cyclohexyl)oxy)quinoline] | 8.9 | 3.4 |
| C[C@@H](c1nc2ncc(Cl)cc2[nH]1)[C@H]1CC[C@@H](c2ccnc3ccc(F)cc32)CC1 [Example 6, 4-((cis)-4-((R)-1-(6-chloro-1H-imidazo[4,5-b]pyridin-2-yl)ethyl)cyclohexyl)-6-fluoroquinoline] | 4.5 | 7 |
| C[C@@H](c1nc2ccc(Cl)cc2[nH]1)[C@H]1CC[C@@H](c2ccnc3ccc(F)cc32)CC1 [Example 2, 4-((cis)-4-((R)-1-(6-chloro-1H-benzo[d]imidazol-2-yl)ethyl)cyclohexyl)-6-fluoroquinoline] | 1.1 | 1.8 |
| CC(c1nc2ccc(Cl)cc2[nH]1)C1CCC(c2ccnc3ccccc23)CC1 (single isomer, unassigned) [Example 16-2, (±)-4-(4-(1-(6-chloro-1H-benzo[d]imidazol-2-yl)ethyl)cyclohexyl)quinoline] | 5.7 | 4.5 |
| C[C@@H](c1nc2ccc(F)cc2[nH]1)[C@H]1CC[C@@H](c2ccnc3ccc(F)cc32)CC1 [Example 3, 6-fluoro-4-((cis)-4-((R)-1-(6-fluoro-1H-benzo[d]imidazol-2-yl)ethyl)cyclohexyl)quinoline] | 1.5 | 2.7 |
| CC[C@H](c1nc2ccc(Cl)cc2[nH]1)[C@H]1CC[C@@H](c2ccnc3ccc(F)cc32)CC1 (single isomer, unassigned) [Example 15-3, 4-(4-(1-(6-chloro-1H-benzo[d]imidazol-2-yl)propyl)cyclohexyl)-6-fluoroquinoline] | 3.5 | 0.7 |
| CC(c1nc2ccc(Cl)cc2[nH]1)C1CCC(c2ccnc3ccccc23)CC1 (single isomer, unassigned) [Example 16-1, (±)-4-(4-(1-(6-chloro-1H-benzo[d]imidazol-2-yl)ethyl)cyclohexyl)quinoline] | – | 54.1 |
| CCC(c1nc2ccc(Cl)cc2[nH]1)[C@H]1CC[C@H](Oc2ccnc3ccccc23)CC1 (single isomer, unassigned) [Example 13-1, 4-(((trans)-4-(1-(6-chloro-1H-benzo[d]imidazol-2-yl)propyl)cyclohexyl)oxy)quinoline] | 5.7 | 4.1 |
| C[C@@H](c1nc2cc3c(cc2[nH]1)OCO3)[C@H]1CC[C@@H](c2ccnc3ccc(F)cc32)CC1 [Example 4, 6-((R)-1-((cis)-4-(6-fluoroquinolin-4-yl)cyclohexyl)ethyl)-5H-[1,3]dioxolo[4′,5′:4,5]benzo[1,2-d]imidazole] | – | 1.5 |
| CCC(c1nc2ccc(Cl)cc2[nH]1)[C@H]1CC[C@@H](Oc2ccnc3ccccc23)CC1 (stereo partly shown) [Example 51, 4-(((1s,4s)-4-(1-(6-chloro-1H-benzo[d]imidazol-2-yl)propyl)cyclohexyl)oxy)quinoline] | – | 1060 |
| C=CC[C@@H](c1nc2ccc(Cl)cc2[nH]1)[C@H]1CC[C@@H](c2ccnc3ccc(F)cc32)CC1 [Example 32, 4-((1S,4s)-4-((R)-1-(6-chloro-1H-benzo[d]imidazol-2-yl)but-3-en-1-yl)cyclohexyl)-6-fluoroquinoline] | 2.8 | 2 |
| C[C@@H](c1nc2ccccc2[nH]1)[C@H]1CC[C@@H](c2ccnc3ccc(F)cc32)CC1 [Example 1, 4-((cis)-4-((R)-1-(1H-benzo[d]imidazol-2-yl)ethyl)cyclohexyl)-6-fluoroquinoline] | 4.7 | 5.2 |
| (±)-Cis and trans-6-chloro-2-(1-(4-(2-(trifluoromethyl)pyridin-4-yl)cyclohexyl)ethyl)-1H-benzo[d]imidazole [Example 38] | – | 62.1 |
| C[C@@H](c1nc2ncccc2[nH]1)[C@H]1CC[C@@H](c2ccnc3ccc(F)cc32)CC1 [Example 7, 4-((cis)-4-((R)-1-(1H-imidazo[4,5-b]pyridin-2-yl)ethyl)cyclohexyl)-6-fluoroquinoline] | 30.1 | 23.2 |
